Source: PubChem BioAssay AID1919009 (Molecular Pharmacology Branch, DTP, NCI, 2023)

Test system: K24384-001-R-PDC complex spheroid growth
Test: Anticancer human tumor K24384-001-R-PDC patient-derived pancreatic adenocarcinoma cell line growth inhibition [AhR]
Details: for IC50: curve of first compound; for viability, T/C: stronger effect = lower value
Procedure, shortened: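 Complex tumor spheroids co-cultured with HUVEC and human MSC stroma; AhR antagonists tested in combination with standard-of-care and investigational agents. Top concentration at or near clinical Cmax (else 10 microM), half-log dilutions; growth expressed as percent test/control.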

[1] = second compound 0.1 µM, first compound 0.00949 µM
[2] = second compound 0.1 µM, first compound 0.03 µM
[3] = second compound 0.1 µM, first compound 0.0949 µM
[4] = second compound 0.1 µM, first compound 0.3 µM
[5] = second compound 0.316 µM, first compound 0.00949 µM
[6] = second compound 0.316 µM, first compound 0.03 µM
[7] = second compound 0.316 µM, first compound 0.0949 µM
[8] = second compound 0.316 µM, first compound 0.3 µM
[9] = second compound 1 µM, first compound 0.00949 µM
[10] = second compound 1 µM, first compound 0.03 µM
[11] = second compound 1 µM, first compound 0.0949 µM
[12] = second compound 1 µM, first compound 0.3 µM
[13] = second compound 3.16 µM, first compound 0.00949 µM
[14] = second compound 3.16 µM, first compound 0.03 µM
[15] = second compound 3.16 µM, first compound 0.0949 µM
[16] = second compound 3.16 µM, first compound 0.3 µM
[17] = second compound 10 µM, first compound 0.00949 µM
[18] = second compound 10 µM, first compound 0.03 µM
[19] = second compound 10 µM, first compound 0.0949 µM
[20] = second compound 10 µM, first compound 0.3 µM
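For viability, T/C in this document: percent of DMSO vehicle-treated spheroid viability set as 100%.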

With COc1ccc([C@@H](O)c2cc(-c3ncnc4cc(N5CCOCC5)ccc34)c(F)cc2Cl)nn1 + Cc1cncc(-c2nc(NCCc3c[nH]c4ccccc34)c3ncn(C(C)C)c3n2)c1 the IC50 (second compound 0.1 µM) was 4.41 µM, the IC50 (second compound 0.316 µM) was 2.82 µM and the IC50 (second compound 1 µM) was 2.82 µM. For the same compound, the IC50 (second compound 3.16 µM) was 1.94 µM, the IC50 (second compound 10 µM) was under 0.0316 µM and the viability, T/C (second compound 0.1 µM, first compound 0.0316 µM) was 88%. For the same compound, the viability, T/C (second compound 0.1 µM, first compound 0.1 µM) was 93.3%, the viability, T/C (second compound 0.1 µM, first compound 0.316 µM) was 93.2% and the viability, T/C (second compound 0.1 µM, first compound 1 µM) was 68.5%. The viability, T/C (second compound 0.1 µM, first compound 3.16 µM) was 57.8%, the viability, T/C (second compound 0.1 µM, first compound 10 µM) was 38.4% and the viability, T/C (second compound 0.316 µM, first compound 0.0316 µM) was 109%. For the same compound, the viability, T/C (second compound 0.316 µM, first compound 0.1 µM) was 106%, the viability, T/C (second compound 0.316 µM, first compound 0.316 µM) was 86.2% and the viability, T/C (second compound 0.316 µM, first compound 1 µM) was 68.4%. The viability, T/C (second compound 0.316 µM, first compound 3.16 µM) was 48%, the viability, T/C (second compound 0.316 µM, first compound 10 µM) was 36.6% and the viability, T/C (second compound 1 µM, first compound 0.0316 µM) was 84.1%. It also gave a viability, T/C (second compound 1 µM, first compound 0.1 µM) of 94.5%, a viability, T/C (second compound 1 µM, first compound 0.316 µM) of 118% and a viability, T/C (second compound 1 µM, first compound 1 µM) of 96.7%. For the same compound, the viability, T/C (second compound 1 µM, first compound 3.16 µM) was 44.9%, the viability, T/C (second compound 1 µM, first compound 10 µM) was 33.9% and the viability, T/C (second compound 3.16 µM, first compound 0.0316 µM) was 76.8%. The viability, T/C (second compound 3.16 µM, first compound 0.1 µM) was 98.2%, the viability, T/C (second compound 3.16 µM, first compound 0.316 µM) was 71.1% and the viability, T/C (second compound 3.16 µM, first compound 1 µM) was 54.7%. For the same compound, the viability, T/C (second compound 3.16 µM, first compound 3.16 µM) was 50.7%, the viability, T/C (second compound 3.16 µM, first compound 10 µM) was 31.9% and the viability, T/C (second compound 10 µM, first compound 0.0316 µM) was 9.83%. For the same compound, the viability, T/C (second compound 10 µM, first compound 0.1 µM) was 8.38%, the viability, T/C (second compound 10 µM, first compound 0.316 µM) was 6.49% and the viability, T/C (second compound 10 µM, first compound 1 µM) was 8.45%. The viability, T/C (second compound 10 µM, first compound 3.16 µM) was 9.55% and the viability, T/C (second compound 10 µM, first compound 10 µM) was 13.7%.
In the case of Nc1ncn(C2CC(O)C(CO)S2)c(=O)n1 (stereo not given) + Cc1cncc(-c2nc(NCCc3c[nH]c4ccccc34)c3ncn(C(C)C)c3n2)c1, the IC50 (second compound 0.1 µM) is reported as over 0.3 µM, the IC50 (second compound 0.316 µM) is reported as over 0.3 µM and the IC50 (second compound 1 µM) is reported as over 0.3 µM. For the same compound, the IC50 (second compound 3.16 µM) was under 0.000949 µM, the IC50 (second compound 10 µM) was under 0.000949 µM and the viability, T/C (second compound 0.1 µM, first compound 0.000949 µM) was 122%. For the same compound, the viability, T/C (second compound 0.1 µM, first compound 0.003 µM) was 126%, the viability, T/C [1] was 116% and the viability, T/C [2] was 101%. It also gave a viability, T/C [3] of 78.1%, a viability, T/C [4] of 73.5% and a viability, T/C (second compound 0.316 µM, first compound 0.000949 µM) of 134%. The viability, T/C (second compound 0.316 µM, first compound 0.003 µM) was 137%, the viability, T/C [5] was 122% and the viability, T/C [6] was 119%. The viability, T/C [7] was 98.1%, the viability, T/C [8] was 84% and the viability, T/C (second compound 1 µM, first compound 0.000949 µM) was 173%. It also gave a viability, T/C (second compound 1 µM, first compound 0.003 µM) of 162%, a viability, T/C [9] of 177% and a viability, T/C [10] of 129%. The viability, T/C [11] was 111%, the viability, T/C [12] was 96% and the viability, T/C (second compound 3.16 µM, first compound 0.000949 µM) was 28.2%. For the same compound, the viability, T/C (second compound 3.16 µM, first compound 0.003 µM) was 38.4%, the viability, T/C [13] was 43.5% and the viability, T/C [14] was 28.2%. For the same compound, the viability, T/C [15] was 29.9%, the viability, T/C [16] was 27.4% and the viability, T/C (second compound 10 µM, first compound 0.000949 µM) was 18.1%. The viability, T/C (second compound 10 µM, first compound 0.003 µM) was 28.5%, the viability, T/C [17] was 24.7% and the viability, T/C [18] was 12.8%. The viability, T/C [19] was 15.5% and the viability, T/C [20] was 18.5%.
O=C(C=Cn1cnc(-c2cc(C(F)(F)F)cc(C(F)(F)F)c2)n1)NNc1cnccn1 + Cc1cncc(-c2nc(NCCc3c[nH]c4ccccc34)c3ncn(C(C)C)c3n2)c1 was tested, and the IC50 (second compound 0.1 µM) was 0.209 µM, the IC50 (second compound 0.316 µM) was 0.242 µM and the IC50 (second compound 1 µM) was 0.229 µM. It also gave an IC50 (second compound 3.16 µM) of 0.196 µM, an IC50 (second compound 10 µM) of under 0.00949 µM and a viability, T/C [1] of 93.8%. For the same compound, the viability, T/C [2] was 94.8%, the viability, T/C [3] was 73.2% and the viability, T/C [4] was 39.3%. It also gave a viability, T/C (second compound 0.1 µM, first compound 0.949 µM) of 27.4%, a viability, T/C (second compound 0.1 µM, first compound 3 µM) of 23.6% and a viability, T/C [5] of 90.8%. For the same compound, the viability, T/C [6] was 95.4%, the viability, T/C [7] was 72.6% and the viability, T/C [8] was 45.3%. The viability, T/C (second compound 0.316 µM, first compound 0.949 µM) was 29.2%, the viability, T/C (second compound 0.316 µM, first compound 3 µM) was 24.8% and the viability, T/C [9] was 116%. For the same compound, the viability, T/C [10] was 111%, the viability, T/C [11] was 79.6% and the viability, T/C [12] was 40.6%. It also gave a viability, T/C (second compound 1 µM, first compound 0.949 µM) of 26.4%, a viability, T/C (second compound 1 µM, first compound 3 µM) of 19.9% and a viability, T/C [13] of 94.9%. For the same compound, the viability, T/C [14] was 90.6%, the viability, T/C [15] was 74.7% and the viability, T/C [16] was 35.1%. The viability, T/C (second compound 3.16 µM, first compound 0.949 µM) was 25.1%, the viability, T/C (second compound 3.16 µM, first compound 3 µM) was 20.4% and the viability, T/C [17] was 9.12%. It also gave a viability, T/C [18] of 12.6%, a viability, T/C [19] of 17.1% and a viability, T/C [20] of 16.6%. It also gave a viability, T/C (second compound 10 µM, first compound 0.949 µM) of 15.1% and a viability, T/C (second compound 10 µM, first compound 3 µM) of 12.8%.
